Test results taken from PMC9090415, “Discovery of small molecule inhibitors of Plasmodium falciparum apicoplast DNA polymerase” (Journal of Enzyme Inhibition and Medicinal Chemistry, 2022).

Target: P. falciparum apicoplast DNA polymerase (Pf-apPOL) (Plasmodium falciparum, UniProt Q8ILY1)
Assay: Fluorescence-based high-throughput DNA polymerase assay (molecular beacon), primary screen and dose-response
Assay type: biochemical
Procedure, shortened: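 Single-point screening used 10 µM compound with 20 nM polymerase, 20 nM hairpin substrate and 6 µM dNTPs for 90 min at 25 °C. Confirmatory titrations (2.5–80 µM) followed fluorescence at three times, and IC50 was derived from a fit including a cooperativity term n.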

[1] = primary screen value of the 186 hits; unit not given; 90 min, 10 µM

P. falciparum apicoplast DNA polymerase (Pf-apPOL), sequence (Q8ILY1 entry or part of it): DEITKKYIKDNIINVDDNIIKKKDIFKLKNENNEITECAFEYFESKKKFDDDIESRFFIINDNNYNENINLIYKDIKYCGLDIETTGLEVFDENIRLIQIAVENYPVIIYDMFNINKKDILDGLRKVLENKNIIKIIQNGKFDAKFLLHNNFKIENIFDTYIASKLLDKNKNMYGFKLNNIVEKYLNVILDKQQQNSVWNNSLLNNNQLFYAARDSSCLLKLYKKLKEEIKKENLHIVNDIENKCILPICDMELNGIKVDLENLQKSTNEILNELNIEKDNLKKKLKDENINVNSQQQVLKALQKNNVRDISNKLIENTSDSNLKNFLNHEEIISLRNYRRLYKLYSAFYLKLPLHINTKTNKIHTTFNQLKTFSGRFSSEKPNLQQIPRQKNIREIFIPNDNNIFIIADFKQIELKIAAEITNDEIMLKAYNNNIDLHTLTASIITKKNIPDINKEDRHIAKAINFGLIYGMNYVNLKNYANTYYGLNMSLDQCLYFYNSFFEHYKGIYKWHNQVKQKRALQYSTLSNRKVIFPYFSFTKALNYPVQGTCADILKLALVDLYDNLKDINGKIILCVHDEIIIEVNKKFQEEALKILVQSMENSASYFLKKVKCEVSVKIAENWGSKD

## O=C(Nc1c2c(nn1-c1ccc(Oc3ccccc3)cc1)CSC2)c1ccco1 [KU0055927]
DRC-1; 10'; concentration 2.5
  % inhibition Apo pol 10': 13.8958%
DRC-1; 10'; concentration 5
  % inhibition Apo pol 10': 29.5283%
DRC-1; 10'; concentration 10
  % inhibition Apo pol 10': 43.1911%
DRC-1; 10'; concentration 20
  % inhibition Apo pol 10': 76.7664%
DRC-1; 10'; concentration 40
  % inhibition Apo pol 10': 85.1313%
DRC-1; 10'; concentration 80
  % inhibition Apo pol 10': 86.5336%
DRC-1; 90'; concentration 2.5
  % inhibition Apol 90': 4.683%
DRC-1; 90'; concentration 5
  % inhibition Apol 90': 16.7633%
DRC-1; 90'; concentration 10
  % inhibition Apol 90': 30.4357%
DRC-1; 90'; concentration 20
  % inhibition Apol 90': 68.2983%
DRC-1; 90'; concentration 40
  % inhibition Apol 90': 80.3407%
DRC-1; 90'; concentration 80
  % inhibition Apol 90': 86.0743%
DRC-1; 180'; concentration 2.5
  % inhibition apPOL 180': -2.927%
DRC-1; 180'; concentration 5
  % inhibition apPOL 180': 5.714%
DRC-1; 180'; concentration 10
  % inhibition apPOL 180': 15.8435%
DRC-1; 180'; concentration 20
  % inhibition apPOL 180': 54.9886%
DRC-1; 180'; concentration 40
  % inhibition apPOL 180': 72.0227%
DRC-1; 180'; concentration 80
  % inhibition apPOL 180': 82.6026%
DRC-2, 40', concentration 5 (unit not given)
  % inhibition Apol 40': 12%
DRC-2, 40', concentration 40 (unit not given)
  % inhibition Apol 40': 69%
DRC-2, 180', concentration 40 (unit not given)
  % inhibition apPOL 180': 69%
DRC-2; 5'; concentration 2.5
  % inhibition Apo pol 5': 8.44%
DRC-2; 5'; concentration 5
  % inhibition Apo pol 5': 12%
DRC-2; 5'; concentration 5 (unit not given)
  % inhibition Apo pol 5': 12%
DRC-2; 5'; concentration 10
  % inhibition Apo pol 5': 40%
DRC-2; 5'; concentration 20
  % inhibition Apo pol 5': 51%
DRC-2; 5'; concentration 40
  % inhibition Apo pol 5': 54%
DRC-2; 5'; concentration 80
  % inhibition Apo pol 5': 55%
DRC-2; 40'; concentration 2.5
  % inhibition Apol 40': 9%
DRC-2; 40'; concentration 5
  % inhibition Apol 40': 12%
DRC-2; 40'; concentration 10
  % inhibition Apol 40': 47%
DRC-2; 40'; concentration 20
  % inhibition Apol 40': 65%
DRC-2; 40'; concentration 40
  % inhibition Apol 40': 69%
DRC-2; 40'; concentration 80
  % inhibition Apol 40': 72%
DRC-2; 90'; concentration 2.5
  % inhibition ApPOL 90': 7%
DRC-2; 90'; concentration 5
  % inhibition ApPOL 90': 9.5%
DRC-2; 90'; concentration 10
  % inhibition ApPOL 90': 45%
DRC-2; 90'; concentration 20
  % inhibition ApPOL 90': 66%
DRC-2; 90'; concentration 40
  % inhibition ApPOL 90': 71%
DRC-2; 90'; concentration 80
  % inhibition ApPOL 90': 75%
DRC-2; 180'; concentration 2.5
  % inhibition apPOL 180': 4%
DRC-2; 180'; concentration 5
  % inhibition apPOL 180': 3.19%
DRC-2; 180'; concentration 10
  % inhibition apPOL 180': 35%
DRC-2; 180'; concentration 20
  % inhibition apPOL 180': 62%
DRC-2; 180'; concentration 40
  % inhibition apPOL 180': 69%
DRC-2; 180'; concentration 80
  % inhibition apPOL 180': 77%
[1]
  DNA Pol: 57
Primary screen value, head "DNA Pol", unit not given; 90 min, 10 µM
  DNA Pol: 57

## COc1cc(/C=C2\C(=O)N(c3ccc(C(=O)O)cc3)N=C2C(F)(F)F)ccc1OCC(C)C [KU0069072]
DRC-1; concentration 2.5; 10'
  % inhibition Apo pol 10': 27.3475%
DRC-1; concentration 2.5; 90'
  % inhibition Apol 90': 15.3217%
DRC-1; concentration 2.5; 180'
  % inhibition apPOL 180': 6.275%
DRC-1; concentration 5; 10'
  % inhibition Apo pol 10': 10.3149%
DRC-1; concentration 5; 90'
  % inhibition Apol 90': -0.5045%
DRC-1; concentration 5; 180'
  % inhibition apPOL 180': -5.844%
DRC-1; concentration 10; 10'
  % inhibition Apo pol 10': 46.067%
DRC-1; concentration 10; 90'
  % inhibition Apol 90': 33.8794%
DRC-1; concentration 10; 180'
  % inhibition apPOL 180': 21.4839%
DRC-1; concentration 20; 10'
  % inhibition Apo pol 10': 70.4954%
DRC-1; concentration 20; 90'
  % inhibition Apol 90': 63.3531%
DRC-1; concentration 20; 180'
  % inhibition apPOL 180': 50.844%
DRC-1; concentration 40; 10'
  % inhibition Apo pol 10': 88.0061%
DRC-1; concentration 40; 90'
  % inhibition Apol 90': 82.4517%
DRC-1; concentration 40; 180'
  % inhibition apPOL 180': 75.9132%
DRC-1; concentration 80 (unit not given); 10'
  % inhibition Apo pol 10': 95.6412%
DRC-1; concentration 80; 90'
  % inhibition Apol 90': 93.9861%
DRC-1; concentration 80; 180'
  % inhibition apPOL 180': 92.8608%
DRC-2; concentration 2.5; 5'
  % inhibition Apo pol 5': 4%
DRC-2; concentration 2.5; 40'
  % inhibition Apol 40': 4.27%
DRC-2; concentration 2.5; 90'
  % inhibition ApPOL 90': 2.38%
DRC-2; concentration 2.5; 180'
  % inhibition apPOL 180': 0.394%
DRC-2; concentration 5; 5'
  % inhibition Apo pol 5': -3.52%
DRC-2; concentration 5; 40'
  % inhibition Apol 40': -5%
DRC-2; concentration 5; 90'
  % inhibition ApPOL 90': -7%
DRC-2; concentration 5; 180'
  % inhibition apPOL 180': -9%
DRC-2; concentration 10; 5'
  % inhibition Apo pol 5': 24%
DRC-2; concentration 10; 40'
  % inhibition Apol 40': 28%
DRC-2; concentration 10; 90'
  % inhibition ApPOL 90': 25%
DRC-2; concentration 10; 180'
  % inhibition apPOL 180': 15%
DRC-2; concentration 20; 5'
  % inhibition Apo pol 5': 44%
DRC-2; concentration 20; 40'
  % inhibition Apol 40': 51%
DRC-2; concentration 20; 90'
  % inhibition ApPOL 90': 50%
DRC-2; concentration 20; 180'
  % inhibition apPOL 180': 40%
DRC-2; concentration 40; 5'
  % inhibition Apo pol 5': 59%
DRC-2; concentration 40; 40'
  % inhibition Apol 40': 70%
DRC-2; concentration 40; 90'
  % inhibition ApPOL 90': 71%
DRC-2; concentration 40; 180'
  % inhibition apPOL 180': 66%
DRC-2; concentration 80; 5'
  % inhibition Apo pol 5': 65%
DRC-2; concentration 80; 40'
  % inhibition Apol 40': 78%
DRC-2; concentration 80; 90'
  % inhibition ApPOL 90': 80%
DRC-2; concentration 80; 180'
  % inhibition apPOL 180': 82%
[1]
  DNA Pol: 76
Primary screen value; head prints only 'DNA Pol'; 90 min, 10 µM
  DNA Pol: 76

## CCN1C(=O)C(=Cc2cccc(OC)c2O)SC1=S [Molecule 78]
Supplemental file 2, sheet IC50 nontoxic compounds; Pf-apPOL
  IC50: 35 µM

## CCOc1ccccc1-c1nc(-c2ccc(=O)[nH]c2)no1 [Molecule 76, CCOc1ccccc1c1onc(n1)c1ccc(=O)[nH]c1]
'DNA Pol'; screening value, unit not given; 90 min, 10 µM
  DNA Pol: 20
DRC-1; 10'; concentration 2.5
  % inhibition Apo pol 10': 0.6967%
DRC-1; 10'; concentration 5
  % inhibition Apo pol 10': 11.2745%
DRC-1; 10'; concentration 10
  % inhibition Apo pol 10': 18.9586%
DRC-1; 10'; concentration 20
  % inhibition Apo pol 10': 38.1067%
DRC-1; 10'; concentration 40
  % inhibition Apo pol 10': 53.5893%
DRC-1; 10'; concentration 80
  % inhibition Apo pol 10': 52.085%
DRC-1; 90'; concentration 2.5
  % inhibition Apol 90': 1.791%
DRC-1; 90'; concentration 5
  % inhibition Apol 90': 6.12%
DRC-1; 90'; concentration 10
  % inhibition Apol 90': 9.377%
DRC-1; 90'; concentration 20
  % inhibition Apol 90': 23.8682%
DRC-1; 90'; concentration 40
  % inhibition Apol 90': 40.5664%
DRC-1; 90'; concentration 80
  % inhibition Apol 90': 58.194%
DRC-1; 180'; concentration 2.5
  % inhibition apPOL 180': 0.4069%
DRC-1; 180'; concentration 5
  % inhibition apPOL 180': -0.1254%
DRC-1; 180'; concentration 10
  % inhibition apPOL 180': 3.145%
DRC-1; 180'; concentration 20
  % inhibition apPOL 180': 13.7998%
DRC-1; 180'; concentration 40
  % inhibition apPOL 180': 29.3034%
DRC-1; 180'; concentration 80
  % inhibition apPOL 180': 52.1842%
DRC-2, 5', concentration 2.5
  % inhibition Apo pol 5': -5.31%
DRC-2, 5', concentration 5
  % inhibition Apo pol 5': 5%
DRC-2, 5', concentration 10
  % inhibition Apo pol 5': 19%
DRC-2, 5', concentration 20
  % inhibition Apo pol 5': 30%
DRC-2, 5', concentration 40
  % inhibition Apo pol 5': 44%
DRC-2, 5', concentration 80
  % inhibition Apo pol 5': 29%
DRC-2, 40', concentration 2.5
  % inhibition Apol 40': 0.0959%
DRC-2, 40', concentration 5
  % inhibition Apol 40': 6.65%
DRC-2, 40', concentration 10
  % inhibition Apol 40': 18%
DRC-2, 40', concentration 20
  % inhibition Apol 40': 30%
DRC-2, 40', concentration 40
  % inhibition Apol 40': 50%
DRC-2, 40', concentration 80
  % inhibition Apol 40': 55%
DRC-2, 90', concentration 2.5
  % inhibition ApPOL 90': -0.625%
DRC-2, 90', concentration 5
  % inhibition ApPOL 90': 5%
DRC-2, 90', concentration 10
  % inhibition ApPOL 90': 15%
DRC-2, 90', concentration 20
  % inhibition ApPOL 90': 26%
DRC-2, 90', concentration 40
  % inhibition ApPOL 90': 48%
DRC-2, 90', concentration 80
  % inhibition ApPOL 90': 56%
DRC-2, 180', concentration 2.5
  % inhibition apPOL 180': -3%
DRC-2, 180', concentration 5
  % inhibition apPOL 180': 1.18%
DRC-2, 180', concentration 10
  % inhibition apPOL 180': 8%
DRC-2, 180', concentration 20
  % inhibition apPOL 180': 16%
DRC-2, 180', concentration 40
  % inhibition apPOL 180': 37%
DRC-2, 180', concentration 80
  % inhibition apPOL 180': 54%
Conc 5 (unit not given); 5'; DRC-2
  % inhibition Apo pol 5': 5%
Conc 5 (unit not given); 90'; DRC-2
  % inhibition ApPOL 90': 5%
Conc 20 (unit not given); 5'; DRC-2
  % inhibition Apo pol 5': 30%
Conc 20 (unit not given); 40'; DRC-2
  % inhibition Apol 40': 30%
Primary screen hit value, DNA Pol (186 hits); 90 min, 10 µM
  DNA Pol: 20
